From patent US20040228905A1, “Anti-inflammatory and antimicrobial uses for bioactive glass compositions” (priority 1996, published 2004)

System: S. sanguis
Assay: Anti-bacterial activity of bioactive glass supernates, survivors enumerated by viable counting
Format: cell-based
Conditions: non-bioactive glass derived alkaline solution, pH 9.8
Method: Nutrient broth (10 ml) was added to 5 grams of particulate bioactive glass with a pore size between 355 and 500 μm, 5 grams of glass beads (not bioactive glass) with a particle size between 455 and 600 μm, and no glass beads. The resulting solutions were incubated with rotation for 1 h at 37 C. 950 μl of each supernatant was removed and added to 50 μl of an overnight culture of S. sanguis, and incubated for 1 h at 37 C. Survivors were enumerated by viable counting.

Compound `[Na+].[OH-]` [NaOH] has a kills of 40%.
